Assay [1] deals with T1, PI3Kα (wild-type), P110/P85α (Homo sapiens, UniProt P42336).
T1 construct: made in house; host or cells: SF9 insect cells
The assay is described as follows: PI3 Kinase TR-FRET assay, PI3Kα (wild-type). The class given is biochemical. The procedure: The ability of compounds of the invention to inhibit PI3K activity was determined in a homogeneous TR-FRET assay using a PI3K assay kit (Millipore, USA; cat #33-016) according to manufacturer's instructions. PI3-Kinases (isoforms α, β, γ and δ) catalyze the phosphorylation of phosphatidylinositol, PIP2 to PIP3 in the presence of ATP and Mg^2+. The PIP3 product is detected by displacement of biotin-PIP3 from an energy transfer complex consisting of Europium labeled anti-GST monoclonal antibody, a GST-tagged PH domain, biotinylated PIP3 and Streptavidin-APC. Excitation of Europium in the complex results in an energy transfer to the APC and a fluorescence emission at 665 nm. The PIP3 product displaces biotin-PIP3 from the complex resulting in a loss of energy transfer and thus a decrease in signal.
To test for the ability of compounds to inhibit the activity of PI3Kα (wild-type), exemplary compounds of formula (I) were dissolved in DMSO and directly distributed into 384-well plates at a volume of 0.5 μL. 14.5 μL of P110/P85α/PIP2 mixture in buffer (obtained from the Millipore kit) containing MgCl2 (40 mM) and DTT (5 mM) was added to compound wells and incubated for 60 min at room temperature. P110/P85α was expressed in SF9 insect cells and purified nickel column extraction. Five ng of wild-type P110/P85α was used in the assay. The kinase reaction was started by the addition of ATP. The assay concentrations of both PIP2 and ATP were 10 μM. The reaction mixture was incubated for 30 min at room temperature and was terminated by the addition of stop mix and detection mix. Fluorescence was measured at 615 and 665 nm upon excitation at 340 nm in a Victor™ V5 fluorometer (Perkin Elmer, USA). The fluorescence emission ratio at 665 to 615 nm, proportional to the kinase activity, was plotted against the compound concentration to generate dose-response curves and IC50 values were determined using GraphPad Prism® 5 software.
On the technique in general: In TR-FRET formats the signal depends on donor and acceptor labels being close together.

Another assay has as its target T2, mTOR kinase (Homo sapiens, UniProt P42345).
T2 construct: purchased Millipore, USA
The assay is described as follows: mTOR kinase TR-FRET assay. Format: biochemical. Particulars: read-out: mTO R. The procedure:
Compound inhibition for mTOR kinase was determined in a homogeneous TR-FRET assay using the Lance® ULight-p70 S6K (Thr 389) peptide (obtained from Perkin-Elmer). The ULight™-labeled synthetic peptide contains the amino acid residues surrounding Thr389 of human p70 S6K. The ULight-p70 S6K peptide is phosphorylated at Thr389 by mTOR. Phosphorylation motif: LGFTYVAP as substrate.
The compound dilution was carried out in 100% DMSO followed by a buffer dilution. The reaction buffer was HEPES (50 mM pH 7.5), EGTA (1 mM), MnCl2 (3 mM). Test compounds at various concentrations were pre-incubated with mTOR (Millipore, USA; 5 ng) for 60 min, and then the Lance® ULight-p70 S6K (Thr 389) peptide (50 nM) was added along with ATP (20 μM). After incubating the reaction mixture for 60 min at room temperature, the kinase reaction was terminated by the addition of EDTA (10 mM) followed by the addition of detection mix, i.e., 1 nM Eu-labeled anti-phospho-substrate antibody (Perkin Elmer, USA). The fluorescence emission at […] was measured upon excitation at 340 nm. IC50 values were subsequently determined using a sigmoidal dose-response curve (variable slope) in GraphPad Prism® 5 software.
Compounds of formula (I) caused inhibition of mTOR kinase activity as determined by this assay.

The structures appear in SMILES notation. Where only a bound is given, the exact number is not on record here.

We go through 20 compounds from patent publication US9115092B2, “Substituted quinazoline and pyrido-pyrimidine derivatives” (Asana Biosciences, LLC, priority 2010, dated 2015).

T1 sequence (P42336 whole entry): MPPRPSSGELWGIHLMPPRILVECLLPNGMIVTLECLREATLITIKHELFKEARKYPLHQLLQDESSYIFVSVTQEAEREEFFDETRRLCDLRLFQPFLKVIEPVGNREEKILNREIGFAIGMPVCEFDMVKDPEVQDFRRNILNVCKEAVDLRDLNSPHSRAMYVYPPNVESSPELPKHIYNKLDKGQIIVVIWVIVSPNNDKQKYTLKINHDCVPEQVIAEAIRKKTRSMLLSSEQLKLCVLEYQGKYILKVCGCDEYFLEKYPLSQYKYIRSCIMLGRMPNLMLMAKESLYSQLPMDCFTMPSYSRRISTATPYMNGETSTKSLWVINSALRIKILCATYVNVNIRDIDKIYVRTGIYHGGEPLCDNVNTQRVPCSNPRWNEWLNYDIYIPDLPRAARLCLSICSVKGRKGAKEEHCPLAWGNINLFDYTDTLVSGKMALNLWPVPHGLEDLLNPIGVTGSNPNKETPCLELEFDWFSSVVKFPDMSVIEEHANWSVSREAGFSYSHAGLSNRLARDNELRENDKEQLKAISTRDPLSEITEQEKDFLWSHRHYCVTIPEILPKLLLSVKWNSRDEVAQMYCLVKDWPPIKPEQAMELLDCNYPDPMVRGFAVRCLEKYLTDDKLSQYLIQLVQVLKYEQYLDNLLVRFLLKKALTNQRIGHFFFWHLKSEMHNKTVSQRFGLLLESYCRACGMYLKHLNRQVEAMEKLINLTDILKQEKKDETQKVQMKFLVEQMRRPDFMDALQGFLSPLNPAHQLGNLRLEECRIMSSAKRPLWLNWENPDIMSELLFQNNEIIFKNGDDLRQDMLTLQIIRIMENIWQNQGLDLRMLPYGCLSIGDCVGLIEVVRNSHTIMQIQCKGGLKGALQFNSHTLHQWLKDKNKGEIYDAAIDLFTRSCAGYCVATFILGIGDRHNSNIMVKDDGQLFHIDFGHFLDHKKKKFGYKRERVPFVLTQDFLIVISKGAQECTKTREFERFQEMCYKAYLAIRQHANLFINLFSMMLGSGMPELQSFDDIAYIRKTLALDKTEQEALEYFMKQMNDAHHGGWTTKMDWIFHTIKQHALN
T1 sequence (P27986 whole entry partner): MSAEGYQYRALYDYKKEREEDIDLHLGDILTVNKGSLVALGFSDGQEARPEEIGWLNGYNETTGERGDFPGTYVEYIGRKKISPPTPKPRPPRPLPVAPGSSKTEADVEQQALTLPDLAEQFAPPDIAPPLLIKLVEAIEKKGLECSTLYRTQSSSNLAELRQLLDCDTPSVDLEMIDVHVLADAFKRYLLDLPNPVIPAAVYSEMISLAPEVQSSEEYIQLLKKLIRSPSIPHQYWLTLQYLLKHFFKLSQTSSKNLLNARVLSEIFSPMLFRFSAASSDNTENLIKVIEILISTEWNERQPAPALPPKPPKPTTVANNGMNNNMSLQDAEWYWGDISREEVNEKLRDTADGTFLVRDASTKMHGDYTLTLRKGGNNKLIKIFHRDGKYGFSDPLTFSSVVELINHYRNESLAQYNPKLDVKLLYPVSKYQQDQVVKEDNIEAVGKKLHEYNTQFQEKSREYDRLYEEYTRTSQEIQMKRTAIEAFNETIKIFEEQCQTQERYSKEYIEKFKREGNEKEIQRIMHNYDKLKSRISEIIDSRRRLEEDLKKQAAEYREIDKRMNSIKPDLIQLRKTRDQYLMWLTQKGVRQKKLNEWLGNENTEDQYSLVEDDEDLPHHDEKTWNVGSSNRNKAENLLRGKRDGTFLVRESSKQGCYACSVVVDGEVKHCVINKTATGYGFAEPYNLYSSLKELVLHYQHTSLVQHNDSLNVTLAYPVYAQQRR

As to `Cc1ccc(-c2ccc3c(N4CCOCC4)nc(-c4ccc(NC(=O)Nc5ccc(N6CCCC6=O)cc5)cc4)nc3c2)o1` [Example 18, 1-(4-(7-(5-methylfuran-2-yl)-4-morpholino-quinazolin-2-yl)phenyl)-3-(4-(2-oxopyrrolidin-1-yl)phenyl)urea], the IC50 is 201 to 10000 nM in assay [1] and less than 50 nM at mTOR kinase.
Taken in the same sequence, the figures for `CN(C)C(=O)c1ccc(NC(=O)Nc2ccc(-c3nc(N4CCOCC4)c4ccc(-c5cccc(F)c5)cc4n3)cc2)cc1` [Example 47, 4-(3-{4-[7-(3-fluoro-phenyl)-4-morpholin-4-yl-quinazolin-2-yl]-phenyl}-ureido)-N,N-dimethyl-benzamide] were 50 to 200 nM and 201 to 10000 nM.
Taken in the same sequence, the figures for `COc1cccc(-c2ccc3c(N4CCOCC4)nc(-c4ccc(NC(=O)Nc5ccc(C(=O)N(C)C)cc5)cc4)nc3c2)c1` [Example 48, 4-(3-{4-[7-(3-methoxy-phenyl)-4-morpholin-4-yl-quinazolin-2-yl]-phenyl}-ureido)-N,N-dimethyl-benzamide] were 50 to 200 nM and 50 to 200 nM.
The matching figures for `CN(C)C(=O)c1ccc(NC(=O)Nc2ccc(-c3nc(N4CCOCC4)c4ccc(-c5cccc(N(C)C)c5)cc4n3)cc2)cc1` [Example 50, 4-(3-{4-[7-(3-dimethylamino-phenyl)-4-morpholin-4-yl-quinazolin-2-yl]-phenyl}-ureido)-N,N-dimethyl-benzamide]: less than 50 nM and 50 to 200 nM.
In the case of `CNC(=O)c1ccc(NC(=O)Nc2ccc(-c3nc(N4CCOCC4)c4ccc(-c5ccc(C)o5)cc4n3)cc2)cc1` [Example 56, N-methyl-4-(3-{4-[7-(5-methyl-furan-2-yl)-4-morpholin-4-yl-quinazolin-2-yl]-phenyl}-ureido)-benzamide], the results for the IC50 (in assay [1]; on mTOR kinase) were 50 to 200 nM and less than 50 nM, respectively.
Consider `Cc1ccc(-c2ccc3c(N4CCOCC4)nc(-c4ccc(NC(=O)Nc5ccc(C(=O)N(C)C)cc5)nc4)nc3c2)o1` [Example 57, N,N-dimethyl-4-(3-{5-[7-(5-methyl-furan-2-yl)-4-morpholin-4-yl-quinazolin-2-yl]-pyridin-2-yl}-ureido)-benzamide], for which the IC50 was less than 50 nM in assay [1] and 201 to 10000 nM at mTOR kinase.
Taken in the same sequence, the figures for `Cc1ccc(-c2ccc3c(N4CCOCC4)nc(-c4ccc(NC(=O)Nc5ccc(C(=O)N(C)C)cc5)cc4)nc3c2)s1` [Example 61, N,N-dimethyl-4-(3-{4-[7-(5-methyl-thiophen-2-yl)-4-morpholin-4-yl-quinazolin-2-yl]-phenyl}-ureido)-benzamide] were 50 to 200 nM and 201 to 10000 nM.
On to `CN(C)C(=O)c1ccc(NC(=O)Nc2ccc(-c3nc(N4CCOCC4)c4ccc(-c5cc6ccccc6o5)cc4n3)cc2)cc1` [Example 64, 4-{3-[4-(7-benzofuran-2-yl-4-morpholin-4-yl-quinazolin-2-yl)-phenyl]-ureido}-N,N-dimethyl-benzamide], for which the IC50 (in assay [1]; on mTOR kinase) was 201 to 10000 nM throughout.
In the case of `Cc1ccc(-c2cccc3c(N4CCOCC4)nc(-c4ccc(NC(=O)Nc5ccc(C(=O)N(C)C)cc5)cc4)nc23)o1` [Example 71, N,N-dimethyl-4-(3-{4-[8-(5-methyl-furan-2-yl)-4-morpholin-4-yl-quinazolin-2-yl]-phenyl}-ureido)-benzamide], the results for the IC50 (in assay [1]; at mTOR kinase) were 50 to 200 nM and less than 50 nM, respectively.
In the case of `CN(C)C(=O)c1ccc(NC(=O)Nc2ccc(-c3nc(N4CCOCC4)c4ccc(-c5cnc(N)nc5)cc4n3)cc2)cc1` [Example 76, 4-(3-{4-[7-(2-amino-pyrimidin-5-yl)-4-morpholin-4-yl-quinazolin-2-yl]-phenyl}-ureido)-N,N-dimethyl-benzamide], the IC50 (in assay [1]; at mTOR kinase) was less than 50 nM throughout.
On to `CN(C)C(=O)c1ccc(NC(=O)Nc2ccc(-c3nc(N4CCOCC4)c4ncc(-c5cccnc5F)cc4n3)cc2)cc1` [Example 78, 4-(3-{4-[7-(2-fluoro-pyridin-3-yl)-4-morpholin-4-yl-pyrido[3,2-d]pyrimidin-2-yl]-phenyl}-ureido)-N,N-dimethyl-benzamide], for which the IC50 (in assay [1]; on mTOR kinase) was less than 50 nM each time.
With `CN(C)C(=O)c1ccc(NC(=O)Nc2ccc(-c3nc(N4CCOCC4)c4cc(F)c(-c5cnn(C)c5)cc4n3)cc2F)cc1` [Example 108, 4-(3-(2-fluoro-4-(6-fluoro-7-(1-methyl-1H-pyrazol-4-yl)-4-morpholino-quinazolin-2-yl)phenyl)ureidodimethyl-benzamide)-N,N-dimethyl-benzamide], the IC50 was 50 to 200 nM in assay [1] and less than 50 nM at mTOR kinase.
With `CN(C)C(=O)c1ccc(NC(=O)Nc2ccc(-c3nc(N4CCOCC4)c4cc(F)c(-c5cccnc5)cc4n3)cc2F)cc1` [Example 109, 4-(3-(2-fluoro-4-(6-fluoro-4-morpholino-7-(pyridin-3-yl)quinazolin-2-yl)phenyl)ureido)-N,N-dimethyl-benzamide], the IC50 (in assay [1]; on mTOR kinase) was 50 to 200 nM in each case.
Regarding `CN(C)C(=O)c1ccc(NC(=O)Nc2ccc(-c3nc(N4CCOCC4)c4ccc(-c5cnc(N)nc5)cc4n3)cc2F)cc1` [Example 110, 4-(3-(4-(7-(2-aminopyrimidin-5-yl)-4-morpholino-quinazolin-2-yl)-2-fluorophenyl)ureido)-N,N-dimethyl-benzamide], the IC50 in assay [1] was 201 to 10000 nM; at mTOR kinase, less than 50 nM.
Taken in the same sequence, the figures for `CN(C)C(=O)c1ccc(NC(=O)Nc2ccc(-c3nc(N4CCOCC4)c4ccc(-c5ccco5)cc4n3)cc2F)cc1` [Example 114, 4-(3-(2-fluoro-4-(7-(furan-2-yl)-4-morpholino-quinazolin-2-yl)phenyl)ureido)-N,N-dimethyl-benzamide] were 50 to 200 nM and 50 to 200 nM.
Taken in the same sequence, the figures for `COc1ncc(-c2ccc3c(N4CCOCC4)nc(-c4ccc(NC(=O)Nc5ccc(C(=O)N(C)C)cc5)nc4)nc3c2)cn1` [Example 119, 4-(3-(5-(7-(2-methoxypyrimidin-5-yl)-4-morpholino-quinazolin-2-yl)pyridin-2-yl)ureido)-N,N-dimethyl-benzamide] were less than 50 nM and 201 to 10000 nM.
Taken in the same sequence, the figures for `Cc1ccc(-c2ccc3c(N4CCOCC4)nc(-c4ccc(NC(=O)Nc5ccc(C(=O)N(C)C)nc5)c(F)c4)nc3c2)o1` [Example 122, 5-(3-(2-fluoro-4-(7-(5-methylfuran-2-yl)-4-morpholino-quinazolin-2-yl)phenyl)ureido)-N,N-dimethylpicolinamide] were 50 to 200 nM and 50 to 200 nM.
On to `CC1CN(c2nc(-c3ccc(NC(=O)Nc4ccc(C(=O)N(C)C)cc4)cc3)nc3cc(-c4cnn(C)c4)cnc23)CC(C)O1` (stereo not shown) [Example 125, 4-(3-(4-(4-(2,6-dimethylmorpholino)-7-(1-methyl-1H-pyrazol-4-yl)pyrido[3,2-d]pyrimidin-2-yl)phenyl)ureido)-N,N-dimethyl-benzamide], for which the IC50 was 201 to 10000 nM in assay [1] and 50 to 200 nM at mTOR kinase.
The matching figures for `CC1CN(c2nc(-c3ccc(NC(=O)Nc4ccc(C(=O)N(C)C)cc4)c(F)c3)nc3cc(-c4cnn(C)c4)cnc23)CC(C)O1` (stereo not shown) [Example 126, 4-(3-(4-(4-(2,6-dimethylmorpholino)-7-(1-methyl-1H-pyrazol-4-yl)pyrido[3,2-d]pyrimidin-2-yl)-2-fluorophenyl)ureido)-N,N-dimethyl-benzamide]: 201 to 10000 nM and 201 to 10000 nM.
With `Cc1ccc(-c2ccc3c(N4CCOCC4)nc(-c4ccc(NC(=O)Nc5ccc(C(=O)N(C)C)cc5F)cc4)nc3c2)o1` [Example 136, 3-fluoro-N,N-dimethyl-4-(3-(4-(7-(5-methylfuran-2-yl)-4-morpholino-quinazolin-2-yl)phenyl)ureido)-benzamide], the IC50 (in assay [1]; at mTOR kinase) was 201 to 10000 nM throughout.
